Reference: patent US20160158251A1, “COMPOSITION FOR PREVENTING OR TREATING MUSCULAR ATROPHY OR PROMOTING MUSCULAR REGENERATION IN SUBJECT COMPRISING SULFONAMIDE COMPOUND AND USE THEREOF” (Samsung Electronics Co., Ltd., priority 2014, published 2016)

Assays:
[1] = system: Human skeletal muscle satellite (HSkMS) cells; assay: Proliferation of human skeletal muscle satellite cells (cell count by hemocytometer, serum and growth factor starvation); format: cell-based; conditions: 24 hours, in comparison with serum starvation (FIG. 1)
Method: Human skeletal muscle satellite (HSkMS) cells were prepared to identify whether proliferation of skeletal muscle satellite cells is promoted by sulfonamide compounds.
The seeded HSkMS cells were cultured at 37° C. in a 5% CO2 incubator for 24 hours. Then, 0.1 μM, 1 μM, and 10 μM of each of sulfadiazine (Sigma-Aldrich), sulfamethoxazole (Sigma-Aldrich), sulfadoxine (Sigma-Aldrich), and sulfaguanidine (Sigma-Aldrich), as sulfonamide compounds, were added to the HSkMS cells, and the cells were incubated at 37° C. in a 5% CO2 incubator for 24 hours. After the incubation, the numbers of HSkMS cells were calculated using a hemocytometer.

MuRF-1 = MuRF-1 mRNA expression in differentiated C2C12 cells treated with dexamethasone (real time PCR); format: cell-based, mouse; conditions: sulfadiazine (1, 10 or 100 μM) 24 hours, then 2 μM dexamethasone 24 hours, vs. dexamethasone only (FIG. 2B)
Method: (§1) C2C12 cell lines (mouse gastrocnemius muscle, ATCC® CRL-1772™) were seeded in a 10% FBS/DMEM and incubated at 37° C. in a 5% CO2 incubator. When the cells were 70% confluent, the culture medium was replaced with 2% FBS/DMEM and the cells were cultured for 4 days to completely induce differentiation into muscle cells. C2C12 cell lines are mouse myoblast cell lines obtained by continuous culture of myoblast cells cultured from gastrocnemius muscle of C3H mice.
(§2) When C2C12 cells were completely differentiated into muscle cells, the culture medium was removed therefrom, and 4 ml of a fresh culture medium including 1 μM, 10 μM, or 100 μM of sulfadiazine (Sigma Aldrich) was added thereto, and then, the cells were cultured at 37° C. in a 5% CO2 incubator for 24 hours. […]
(§3) A Trizol reagent (Invitrogen) was added to the collected cells, and total RNA was separated therefrom according to manufacturer's protocols. […] Amounts of mRNA of Atrogin-1 and MuRF-1 were quantified using a real time PCR device (MyiQPCR instrument, BioRad) that is a device measuring SYBR Green. […]
(§4) Values obtained via amplification were normalized to GAPDH gene expression, and relative expression levels of mRNA of Atrogin-1 and MURF-1 were quantified. The quantified relative expression levels (arbitrary unit (AU)) of mRNA of Atrogin-1 and MURF-1 are illustrated in FIGS. 2A and 2B, respectively (*: p<0.05 vs. dexamethasone)

Atrogin-1 = Atrogin-1 mRNA expression in differentiated C2C12 cells treated with dexamethasone (real time PCR); format: cell-based, mouse; conditions: sulfadiazine (1, 10 or 100 μM) 24 hours, then 2 μM dexamethasone 24 hours, vs. dexamethasone only (FIG. 2A)
Method: as §1, §2, §3, §4

Structure (SMILES): NC(N)=NS(=O)(=O)c1ccc(N)cc1 [sulfaguanidine]
- proliferation of the HSkMS cells ([1]; 10 μM): promoted in all groups, in comparison with serum starvation, except for the groups

Structure (SMILES): Cc1cc(NS(=O)(=O)c2ccc(N)cc2)no1 [sulfamethoxazole]
- proliferation of the HSkMS cells ([1]; 10 μM): promoted in all groups, in comparison with serum starvation, except for the groups

Structure (SMILES): Nc1ccc(S(=O)(=O)Nc2ncccn2)cc1 [sulfadiazine]
- proliferation of the HSkMS cells ([1]; 1 μM): promoted in all groups, in comparison with serum starvation, except for the groups
- proliferation of the HSkMS cells ([1]; 10 μM): promoted in all groups, in comparison with serum starvation, except for the groups
- expression of mRNA of MuRF1 (MuRF-1): decreased
- expression of mRNA of Atrogin-1 (Atrogin-1): decreased
